Assay results taken from ChEMBL document CHEMBL5356982, “Truncated derivatives of amphidinol 3 reveal the functional role of polyol chain in sterol-recognition and pore formation” (Bioorg Med Chem Lett, 2024).
Active and inactive are the calls of the source. The calls are words filed in the database; no cut-off is given here.

Key:
Lipid bilayer [1] = test: Binding affinity to 10% Ergosterol containing DOPC liposomes at 50 uM and measured upto 600 sec by SPR method
Aspergillus niger = test: Antifungal activity against Aspergillus niger NBRC 31012 assessed as inhibition zone incubated for 2 days by disk diffusion method; format: functional; conditions: time 2 day
Lipid bilayer [2] = test: Binding affinity to DOPC liposomes at 50 uM and measured upto 600 sec by SPR method
Lipid bilayer [3] = test: Induction of pore formation in 10% Ergosterol containing DOPC liposomes assessed as calcein dye leakage by measuring calcein fluorescence at 27 uM by fluorescence microplate reader analysis
Lipid bilayer [4] = test: Binding affinity to DOPC liposomes assessed as dissociation constant for second step at 50 uM and measured from 300 to 600 sec by SPR method
Lipid bilayer [5] = test: Binding affinity to DOPC liposomes assessed as dissociation constant for first step at 50 uM and measured from 300 to 600 sec by SPR method
Lipid bilayer [6] = test: Binding affinity to 10% Ergosterol containing DOPC liposomes assessed as dissociation constant for second step at 50 uM and measured from 300 to 600 sec by SPR method
Lipid bilayer [7] = test: Induction of pore formation in 10% Ergosterol containing DOPC liposomes assessed as calcein dye leakage by measuring calcein fluorescence by fluorescence microplate reader analysis
Lipid bilayer [8] = test: Induction of pore formation in DOPC liposomes assessed as calcein dye leakage by measuring calcein fluorescence at 27 uM by fluorescence microplate reader analysis
Lipid bilayer [9] = test: Binding affinity to DOPC liposomes assessed as dissociation constant at equilibrium at 50 uM and measured from 300 to 600 sec by SPR method
Lipid bilayer [10] = test: Binding affinity to 10% Ergosterol containing DOPC liposomes assessed as dissociation constant at equilibrium at 50 uM and measured from 300 to 600 sec by SPR method
Lipid bilayer [11] = test: Binding affinity to 10% Ergosterol containing DOPC liposomes assessed as dissociation constant for first step at 50 uM and measured from 300 to 600 sec by SPR method
Lipid bilayer [12] = test: Induction of pore formation in 10% Ergosterol containing DOPC liposomes assessed as calcein dye leakage by measuring calcein fluorescence at 10 uM by fluorescence microplate reader analysis

Activity (Lipid bilayer [1])	MIC (Aspergillus niger)	Activity (Lipid bilayer [2])	Activity (Lipid bilayer [3])	step-2 equilibrium ratio (Lipid bilayer [6])	Activity (Lipid bilayer [12])	Structure (SMILES)	Kd (Lipid bilayer [4])	Kd (Lipid bilayer [5])	Kd (Lipid bilayer [6])	EC50 (Lipid bilayer [7])	Activity (Lipid bilayer [8])	Kd (Lipid bilayer [9])	Kd (Lipid bilayer [10])	Kd (Lipid bilayer [11])
inactive	>300 µg	inactive	inactive			C=C/C=C/CC/C=C/C=C/C=C/CC/C=C/[C@H](O)[C@H](O)[C@@H]1O[C@@H]([C@H](O)[C@H](O)C(=C)CC[C@@H](O)[C@@H]2C[C@H](O)[C@H](O)[C@@H]([C@H](O)[C@@H](O)CO)O2)C[C@@H](O)[C@H]1O								
	20 µg	inactive	inactive	0.044	Active	C=C/C=C/CC/C=C/C=C/C=C/CC/C=C/[C@H](O)[C@H](O)[C@@H]1O[C@@H]([C@H](O)[C@H](O)C(=C)CC[C@@H](O)[C@@H]2C[C@H](O)[C@H](O)[C@@H]([C@H](O)[C@@H](O)/C=C(\C)CC[C@H](O)C[C@H](O)[C@H](O)[C@@H](C)CCO)O2)C[C@@H](O)[C@H]1O							1 µM	25 µM

Structure (SMILES)	Activity (Lipid bilayer [1])	MIC (Aspergillus niger)	Activity (Lipid bilayer [2])	Activity (Lipid bilayer [3])	step-2 equilibrium ratio (Lipid bilayer [6])	Activity (Lipid bilayer [12])	Kd (Lipid bilayer [4])	Kd (Lipid bilayer [5])	Kd (Lipid bilayer [6])	EC50 (Lipid bilayer [7])	Activity (Lipid bilayer [8])	Kd (Lipid bilayer [9])	Kd (Lipid bilayer [10])	Kd (Lipid bilayer [11])
C=C/C=C/CC/C=C/C=C/C=C/CC/C=C/[C@H](O)[C@H](O)[C@@H]1O[C@@H]([C@H](O)[C@H](O)C(=C)CC[C@@H](O)[C@@H]2C[C@H](O)[C@H](O)[C@@H]([C@H](O)[C@@H](O)/C=C(\C)CC[C@H](O)C[C@H](O)[C@H](O)[C@@H](C)C[C@H](O)[C@@H](O)CCCCC[C@@H](O)CCC[C@@H](O)/C=C/C[C@@H](O)/C=C/C[C@@H](O)CO)O2)C[C@@H](O)[C@H]1O		8 µg					6300 µM	980 µM	2.4 µM	2.96 µM	Active	6.9 µM	0.00012 µM	51 µM
